Consider eleven compounds from ChEMBL document CHEMBL3734719, “Discovery of highly potent triazoleantifungal agents with piperidine-oxadiazole side chains” (2015).

Common to all, as to assay type: functional
The subject of one assay is Trichophyton rubrum. Briefly: Antifungal activity against Trichophyton rubrum after 48 hrs by spectrophotometry.
The next assay concerns Candida parapsilosis. Briefly: Antifungal activity against Candida parapsilosis after 48 hrs by spectrophotometry. Particulars: Lodderomyces parapsilosis.
For a further assay, the system named is Cryptococcus neoformans. The assay is described as follows: Antifungal activity against Cryptococcus neoformans after 48 hrs by spectrophotometry.
The subject of another assay is Candida albicans. Briefly: Antifungal activity against Candida albicans after 48 hrs by spectrophotometry.
The next assay concerns Nakaseomyces glabratus. Briefly: Antifungal activity against Candida glabrata after 48 hrs by spectrophotometry.
The next assay concerns Nannizzia gypsea. The assay is described as follows: Antifungal activity against Microsporum gypseum after 48 hrs by spectrophotometry.
The test system of a further assay is Aspergillus fumigatus. The assay is described as follows: Antifungal activity against Aspergillus fumigatus after 48 hrs by spectrophotometry.

Each structure is given as a SMILES string. Converted amounts (≈) assume the structure as drawn. Where only a bound is given, the exact number is not on record here.

As usually defined, the MIC80 is the lowest concentration that inhibits either 80% of growth or 80% of the strains tested, depending on the study. Consider `Cc1ccc(-c2noc(C3CCN(CC(O)(Cn4cncn4)c4ccc(F)cc4F)CC3)n2)cc1` (configuration not stated), for which the MIC80 in the assay on Trichophyton rubrum came out at 2 µg/mL (≈ 4.16 µM); with Candida parapsilosis it was 2 µg/mL (≈ 4.16 µM); in the assay with Cryptococcus neoformans it was 4 µg/mL (≈ 8.32 µM); in the assay with Candida albicans, 0.5 µg/mL (≈ 1.04 µM); in the assay on Nakaseomyces glabratus it was 4 µg/mL (≈ 8.32 µM); in the assay on Nannizzia gypsea, 8 µg/mL (≈ 16.6 µM). The compound further gave an MIC80 with Aspergillus fumigatus of 4 µg/mL (≈ 8.32 µM).
As to `OC(CN1CCC(c2nnc(-c3ccccc3F)o2)CC1)(Cn1cncn1)c1ccc(F)cc1F` (configuration not stated), the MIC80 in the assay with Trichophyton rubrum is 2 µg/mL (≈ 4.13 µM); in the assay on Candida parapsilosis, 0.5 µg/mL (≈ 1.03 µM); against Cryptococcus neoformans, at most 0.125 µg/mL; against Candida albicans it was 0.125 µg/mL (≈ 0.258 µM); in the assay with Nakaseomyces glabratus, 1 µg/mL (≈ 2.06 µM); against Nannizzia gypsea it was 2 µg/mL (≈ 4.13 µM). In the assay on Aspergillus fumigatus, this compound returned an MIC80 of 1 µg/mL (≈ 2.06 µM).
On to `CCc1ccc(-c2nnc(C3CCN(CC(O)(Cn4cncn4)c4ccc(F)cc4F)CC3)o2)cc1` (configuration not stated), for which the MIC80 with Trichophyton rubrum was 4 µg/mL (≈ 8.09 µM); against Candida parapsilosis, 2 µg/mL (≈ 4.04 µM); in the assay with Cryptococcus neoformans, 2 µg/mL (≈ 4.04 µM); against Candida albicans it was 0.5 µg/mL (≈ 1.01 µM); against Nakaseomyces glabratus, 4 µg/mL (≈ 8.09 µM); with Nannizzia gypsea, 4 µg/mL (≈ 8.09 µM). Besides, in the assay on Aspergillus fumigatus, the MIC80 was determined as 4 µg/mL (≈ 8.09 µM).
As for `OC(CN1CCC(c2nc(-c3ccc(C(F)(F)F)cc3F)no2)CC1)(Cn1cncn1)c1ccc(F)cc1F` (configuration not stated), the MIC80 against Trichophyton rubrum is 1 µg/mL (≈ 1.81 µM); against Candida parapsilosis it was 2 µg/mL (≈ 3.62 µM); with Cryptococcus neoformans, 2 µg/mL (≈ 3.62 µM); with Candida albicans it was 1 µg/mL (≈ 1.81 µM); in the assay on Nakaseomyces glabratus it was 4 µg/mL (≈ 7.24 µM); in the assay with Nannizzia gypsea, 0.5 µg/mL (≈ 0.905 µM). This compound displayed an MIC80 with Aspergillus fumigatus of 4 µg/mL (≈ 7.24 µM).
As for `O=[N+]([O-])c1ccc(-c2nnc(C3CCN(CC(O)(Cn4cncn4)c4ccc(F)cc4F)CC3)o2)cc1` (configuration not stated), the MIC80 was found to be 2 µg/mL (≈ 3.91 µM) with Trichophyton rubrum; 2 µg/mL (≈ 3.91 µM) in the assay on Candida parapsilosis; 1 µg/mL (≈ 1.96 µM) in the assay on Cryptococcus neoformans; 0.25 µg/mL (≈ 0.489 µM) in the assay on Candida albicans; 4 µg/mL (≈ 7.82 µM) with Nakaseomyces glabratus; 2 µg/mL (≈ 3.91 µM) in the assay with Nannizzia gypsea. Moreover, in the assay on Aspergillus fumigatus, the MIC80 was 4 µg/mL (≈ 7.82 µM).
For `OC(CN1CCC(c2nnc(-c3cccnc3)o2)CC1)(Cn1cncn1)c1ccc(F)cc1F` (configuration not stated), the MIC80 in the assay on Trichophyton rubrum was determined as 4 µg/mL (≈ 8.56 µM); with Candida parapsilosis, 1 µg/mL (≈ 2.14 µM); in the assay with Cryptococcus neoformans, 0.5 µg/mL (≈ 1.07 µM); in the assay with Candida albicans, 0.125 µg/mL (≈ 0.267 µM); in the assay on Nakaseomyces glabratus it was 4 µg/mL (≈ 8.56 µM); against Nannizzia gypsea, 4 µg/mL (≈ 8.56 µM). In the assay with Aspergillus fumigatus, this compound returned an MIC80 of 4 µg/mL (≈ 8.56 µM).
`OC(CN1CCC(c2nc(-c3ccsc3)no2)CC1)(Cn1cncn1)c1ccc(F)cc1F` (configuration not stated): the MIC80 in the assay with Trichophyton rubrum came out at 4 µg/mL (≈ 8.47 µM); in the assay with Candida parapsilosis, 4 µg/mL (≈ 8.47 µM); against Cryptococcus neoformans, 2 µg/mL (≈ 4.23 µM); against Candida albicans, 0.5 µg/mL (≈ 1.06 µM); with Nakaseomyces glabratus, 4 µg/mL (≈ 8.47 µM); in the assay with Nannizzia gypsea it was 4 µg/mL (≈ 8.47 µM). The compound also showed an MIC80 in the assay on Aspergillus fumigatus of 4 µg/mL (≈ 8.47 µM).
In the case of `OC(CN1CCC(c2nnc(-c3ccco3)o2)CC1)(Cn1cncn1)c1ccc(F)cc1F` (configuration not stated), the MIC80 is 2 µg/mL (≈ 4.38 µM) against Trichophyton rubrum; 0.5 µg/mL (≈ 1.1 µM) against Candida parapsilosis; at most 0.125 µg/mL in the assay with Cryptococcus neoformans; 0.125 µg/mL (≈ 0.274 µM) with Candida albicans; 0.5 µg/mL (≈ 1.1 µM) against Nakaseomyces glabratus; 4 µg/mL (≈ 8.76 µM) in the assay on Nannizzia gypsea. Also, the MIC80 in the assay on Aspergillus fumigatus is 0.5 µg/mL (≈ 1.1 µM).
On to `OC(CN1CCC(c2nc(-c3ccco3)no2)CC1)(Cn1cncn1)c1ccc(F)cc1F` (configuration not stated), for which the MIC80 with Trichophyton rubrum amounted to 2 µg/mL (≈ 4.38 µM); against Candida parapsilosis, 1 µg/mL (≈ 2.19 µM); in the assay on Cryptococcus neoformans it was 0.5 µg/mL (≈ 1.1 µM); in the assay on Candida albicans it was 0.063 µg/mL (≈ 0.138 µM); in the assay with Nakaseomyces glabratus, 1 µg/mL (≈ 2.19 µM); in the assay with Nannizzia gypsea, 2 µg/mL (≈ 4.38 µM). This compound also had an MIC80 in the assay on Aspergillus fumigatus of 1 µg/mL (≈ 2.19 µM).
Consider `OC(CN1CCC(c2nnc(-c3c(F)cccc3F)o2)CC1)(Cn1cncn1)c1ccc(F)cc1F` (configuration not stated), for which the MIC80 in the assay on Trichophyton rubrum was 2 µg/mL (≈ 3.98 µM); against Candida parapsilosis it was 0.5 µg/mL (≈ 0.995 µM); with Cryptococcus neoformans it was at most 0.125 µg/mL; in the assay on Candida albicans, 0.063 µg/mL (≈ 0.125 µM); against Nakaseomyces glabratus, 0.5 µg/mL (≈ 0.995 µM); in the assay with Nannizzia gypsea, 2 µg/mL (≈ 3.98 µM). The compound also returned an MIC80 against Aspergillus fumigatus of 0.5 µg/mL (≈ 0.995 µM).
Take `OC(CN1CCC(c2nc(-c3cccnc3)no2)CC1)(Cn1cncn1)c1ccc(F)cc1F` (configuration not stated): the MIC80 in the assay on Trichophyton rubrum worked out at 1 µg/mL (≈ 2.14 µM); against Candida parapsilosis, 0.25 µg/mL (≈ 0.535 µM); in the assay with Cryptococcus neoformans, 0.125 µg/mL (≈ 0.267 µM); against Candida albicans, 0.063 µg/mL (≈ 0.135 µM); against Nakaseomyces glabratus, 0.125 µg/mL (≈ 0.267 µM); in the assay with Nannizzia gypsea it was 0.5 µg/mL (≈ 1.07 µM). Also, the MIC80 with Aspergillus fumigatus came out at 0.125 µg/mL (≈ 0.267 µM).
